Key:
[1] = test system: IMCD3 cells stably expressing mNeonGreen-IFT88; assay: Intraflagellar transport assay (mNeonGreen-IFT88 particles in primary cilia); format: cell-based, murine
From the text: To quantitatively assess the effect of dynapyrazole-A treatment on intraflagellar transport, we analyzed time-lapse images of cilia using KymographDirect, an automated analysis algorithm that extracts particle velocities from kymographs ([Mangeol et al., 2016]). […] Under control conditions (0.3% DMSO, Figure 4B), anterograde particles moved with a speed of 694 ± 117 nm/s (Figure 4D and F, mean ± S.D., 429 particles, 38 cilia) and retrograde particles moved at 421 ± 156 nm/s (Figure 4D and F, 244 particles, 38 cilia), consistent with previous studies ([Ye et al., 2013]). […] After 10 min of treatment, reductions in velocities were similar to those at the 5 min time point (Figure 4—figure supplement 1). Treatment of cilia with a higher dynapyrazole-A concentration (10 µM) slowed both retrograde- and anterograde-directed motion (Figure 4—figure supplement 2). […] We note that dynapyrazole-A, at concentrations close to the IC50 for inhibiting microtubule gliding in vitro, alters intraflagellar transport in a manner similar to what has been observed following dynein 2 loss-of-function in Chlamydomonas ([Engel et al., 2012]).
Murine inner medullary collecting duct (IMCD3) cells stably expressing mNeonGreen-IFT88 were maintained in DMEM/F12 supplemented with 10% FBS. Cells were typically passaged fewer than 10 times following thawing of frozen stocks. Cells were described previously ([Ye et al., 2013]). 6 × 10^5 cells were seeded onto 22-mm coverslips in a six well plate and incubated for 24 hr at 37°C. The media was then replaced with DMEM/F12 +0.2% FBS and cells were incubated 24 hr to promote cilium formation. Immediately prior to imaging, media was replaced with phenol red-free media (Leibovitz's L-15 + 0.2% FBS) containing either carrier solvent control (0.3% DMSO) or compound. IFT88 transport was observed using a TE2000-E spinning disk confocal microscope (Nikon PlanApo 100x/1.45 objective lens) fitted with a Photometrics Cascade II (EMCCD 512) camera and imaged at a frame rate of 2 frames/s. Kymographs were generated in FIJI using KymographClear and the velocities of mNeonGreen-IFT88 foci movement were quantified by KymographDirect ([Mangeol et al., 2016]). The algorithm used to identify IFT88 foci could identify particles with velocitities ≥ 25nm/s as moving particles.
For washout experiments, cells were exposed to a 5-min compound treatment as described above. Cells were then washed twice with 5 mL of L-15 supplemented with 10% FBSand 0.3% DMSO. A 5-min incubation followed each wash. Imaging was performed as described above immediately after the second 5-min wash and incubation step had been completed. For washout experiments shown in Figure 4—figure supplement 3, wash steps were performed with either L-15 supplemented with 10% FBS or L-15 supplemented with 0.2% FBS. Following washout of compound, cells were incubated at 37° for 60-min and then imaged.
Statistical analysis of intraflagellar transport frequencies: Run frequencies output directly from KymographDirect were tabulated across all cilia imaged in a given condition (see Figure 4—figure supplement 2). For each of two experimental conditions (5 µM 8, 10 µM 8) and the respective controls, an un-paired T-test was performed for the difference of means control and compound treatment. This analysis was performed for each direction of motion.

[2] = test system: IMCD3 cells; assay: Cellular ATP content (CellTiter-Glo cytotoxicity assay); format: cell-based, murine
Method: Murine inner medullary collecting duct (IMCD3) cells stably expressing mNeonGreen-IFT88 (described previously [[Ye et al., 2013]]) were maintained in DMEM/F12 supplemented with 10% FBS. Cell line identity was confirmed by the proper localization and motility of mNeonGreen IFT88 puncta, in reference to published analyses from our groups and from the work of others ([Ye et al., 2013]; [Yang et al., 2015]). Cells were seeded in a 96-well plate at a density of 5 × 10^3 cells/well. Following overnight incubation, low-serum media (0.2% FBS) containing solvent control (0.3% DMSO) or compound. At fixed time points, CellTiter-Glo 2.0 (Promega) reagent was added to the wells, mixed by pipetting, and transferred to a white, opaque 96-well plate. After a 10 min incubation, luminescence for each condition was read using a Synergy Neo plate reader (1 s integration time per well).

[3] = 5 µM 5 min, then washout 10 min in 10% FBS, 0.3% DMSO
[4] = 5 µM, then 0.2% FBS washout for 1 hr
[5] = 5 µM, then 10% FBS washout for 1 hr

N#Cc1c(C2(c3ccc(Cl)cc3)CC2)nn2c1[nH]c(=O)c1cc(I)ccc12 [Compound 8, 2-[1-(4-chlorophenyl)cyclopropyl]-7-iodo-5-oxo-4H-pyrazolo[1,5-a]quinazoline-3-carbonitrile]
Fa, anterograde frequency after washout [1, 3]: 14.2 ± 6 counts/minute | Fr, retrograde frequency after washout [1, 3]: 9.6 ± 7 counts/minute | Va, anterograde velocity after washout [1, 3]: 697 ± 149 nm/s | Vr, retrograde velocity after washout [1, 3]: 467 ± 136 nm/s | Reduction of anterograde particle velocities ([1]; 5 µM, 5 min, versus DMSO control): ~ 18% | Fr, retrograde frequency ([1]; 5 µM, 5 min, DMSO control 6.5 ± 4): 4.1 ± 3 counts/minute | Fa, anterograde frequency ([1]; 5 µM, 5 min, DMSO control 11.3 ± 3): 8.5 ± 5 counts/minute | Vr, retrograde velocity ([1]; 5 µM, 5 min, DMSO control 421 ± 156): 156 ± 107 nm/s | Va, anterograde velocity ([1]; 5 µM, 5 min, DMSO control 694 ± 117): 566 ± 116 nm/s | Fr, retrograde frequency ([1]; 5 µM, 10 min, DMSO control 5.9 ± 3): 4.2 ± 3 counts/minute | Fa, anterograde frequency ([1]; 5 µM, 10 min, DMSO control 10.2 ± 3): 6.9 ± 4 counts/minute | Vr, retrograde velocity ([1]; 5 µM, 10 min, DMSO control 354 ± 134): 202 ± 180 nm/s | Va, anterograde velocity ([1]; 5 µM, 10 min, DMSO control 655 ± 124): 572 ± 121 nm/s | Fa, anterograde frequency after low-serum washout [1, 4]: 10.1 ± 4 counts/minute | Fr, retrograde frequency after low-serum washout [1, 4]: 5.2 ± 2 counts/minute | Va, anterograde velocity after low-serum washout [1, 4]: 620 ± 134 nm/s | Vr, retrograde velocity after low-serum washout [1, 4]: 219 ± 117 nm/s | Fa, anterograde frequency after high-serum washout [1, 5]: 18.8 ± 5 counts/minute | Fr, retrograde frequency after high-serum washout [1, 5]: 12.4 ± 6 counts/minute | Va, anterograde velocity after high-serum washout [1, 5]: 660 ± 112 nm/s | Vr, retrograde velocity after high-serum washout [1, 5]: 441 ± 156 nm/s | Fa, anterograde frequency ([1]; 10 µM): 6.8 ± 4 counts/minute | Fr, retrograde frequency ([1]; 10 µM): 4.0 ± 2 counts/minute | Va, anterograde velocity ([1]; 10 µM): 466 ± 183 nm/s | Vr, retrograde velocity ([1]; 10 µM): 121 ± 78 nm/s | ATP levels in cells ([2]; 5 µM, low-serum or serum-free media): stable for up to 3 hr | Lowering of intracellular ATP levels ([2]; 15 µM, at 3 hr): ~ 70%

Reference: PMC5478271, “Chemical structure-guided design of dynapyrazoles, cell-permeable dynein inhibitors with a unique mode of action” (eLife, 2017)
